Series [1] has as its system β-haemolytic streptococci (Groups A, B, C and G). Nature of the series: Gyrase MIC, microdilution broth method (Protocol 1). The series is classed as cell-based. As to conditions: 28 isolates tested.
A further series has as its system M. tuberculosis. Briefly: MIC determination procedure for Mycobacterium species (Protocol 4). The series is classed as cell-based.
Series [2] can be described thus: Pharmacokinetics, monkey oral study. It is filed as in vivo, cynomolgus monkeys. The following applies: for AUC: male, cynomolgus monkey, plasma, po, monkey plasma, label = analyte. The source says: Pharmacokinetic Data Analysis.
Statistical Data Analysis.
Plasma concentration vs. time data was subjected to noncompartmental pharmacokinetic (PK) analysis.

Series [3] can be described thus: Oral range finding toxicity and toxicokinetic study in male cynomolgus monkeys. It is filed as in vivo, Cynomolgus monkeys (Macaca Fascicularis). The text has this:
Cynomolgus monkeys (Macaca Fascicularis) were obtained from Primus Bio-Resources Inc. of PinCourt, Quebec, Canada. Cynomolgus monkeys were chosen because they are a non-rodent species that is commonly used for nonclinical toxicity evaluations.
Eight (2 naive and 6 non-naïve) males were used in the study. The animals were young adults and weighed between 2 to 4 kg at the onset of dosing.
The first day of dosing was designated as Day 1 of the study. The actual volume administered to each animal was calculated and adjusted based on the most recent body weight of each animal.
Cage-side clinical signs (ill health, behavioral changes etc.) were recorded at least once daily during the study.
Body weights were recorded for all animals prior to group assignment and on Days 1 (prior to dosing), 3 and 7 as well as terminally prior to necropsy (fasted).
Electrocardiograms (bipolar limb leads I, II and III, and augmented unipolar leads aVR, aVL and aVF) were obtained for all monkeys once during the pre-treatment period and again on Day 7 (post-dosing).
The tracings were assessed for gross changes indicative of cardiac electrical dysfunction. The potential presence of abnormalities involving heart rate (lead II), sinus and atrioventricular rhythm or conductivity were determined. Heart rate, PR interval, QRS duration, QT and QTc intervals values were measured.
A series of 7 blood samples (approximately 0.5 mL each) were collected from each monkey on Days 1 and 7 at the following time points: predose, 30 minutes and 2, 3, 6, 12 and 24 hours post-dose. […] Tubes were placed on wet ice until ready for processing. […]
The following parameters were measured on blood samples collected into EDTA anticoagulant: red blood cell count, mean corpuscular hemoglobin (calculated), hematocrit (calculated), mean corpuscular volume, hemoglobin, morphology of cells, white blood cell count, platelet count, white blood cell differential (absolute), reticulocyte (absolute and percentage) and mean corpuscular hemoglobin concentration (calculated).
Activated partial thromboplastin time and prothrombin time were measured on blood samples collected into citrate anticoagulant.
The following parameters were measured on blood samples collected into tubes containing clotting activator: a/g ratio (calculated), creatinine, alanine aminotransferase, globulin (calculated), albumin, glucose, alkaline phosphatase, phosphorus (inorganic), aspartate aminotransferase, potassium, bilirubin (total), sodium, calcium, total protein, chloride, triglycerides, cholesterol (total), urea, gamma glutamyltransferase and sorbitol dehydrogenase.
The following parameters were measured on urine samples: bilirubin, protein, blood, sediment microscopy, color and appearance, specific gravity, glucose, urobilinogen, ketones, volume and pH. […]

A further series deals with M. kansasii. Nature of the series: MIC determination procedure for Mycobacterium species (Protocol 4). It is filed as cell-based.
The next series deals with M. abscessus. Described as above. As to conditions: Mycobacteroides abscessus. It is filed as cell-based.
The test system of series [4] is Stenotrophomonas maltophilia. Briefly: Gyrase MIC against Gram negatives, microdilution broth method (Protocol 2). It is filed as cell-based. In general terms: Dilution methods test growth across graded concentrations, often in twofold steps.
Another series addresses S. aureus TopoIV enzyme (Staphylococcus aureus, UniProt P0C1S7). Briefly: DNA Topo IV ATPase assay. It is filed as biochemical. As to conditions: 64 nM enzyme, 30° C., Morrison Equation fit.
Series [5] is described as follows: Conversion of Compound W to Compound 23 in liver S9 fractions. The following applies: hepatic and intestinal S9 fractions from rats, dogs, monkeys and humans. The series is classed as in vitro ADME. The protocol:
The incubations were done for 0, 5, 10, 15, 30, 45 or 60 minutes. The formation of Compound 23 was quantified by LC/MS-MS and data were fitted to the Michaelis Menten equation.

The target in a further series is S. aureus DNA gyrase (Staphylococcus aureus, UniProt P0A0K8). Briefly: DNA gyrase ATPase assay. The following applies: 90 nM enzyme, 0.9 mM ATP, 30° C.
The mark [6] stands for this setting: 100 mg/kg, Compound W dosed PO 100 mg/kg in 0.5% MC, read-out: AUCextrap.

This note sets out measurements from patent publication US8481551B2, “Gyrase and topoisomerase IV inhibitors” (Vertex Pharmaceuticals Incorporated, priority 2011, dated 2013).

Usually MIC90 stands for the lowest concentration that inhibits either 90% of growth or 90% of the strains tested, depending on the study. By MIC is commonly meant the least concentration at which growth counts as inhibited. The term IC50 denotes the concentration that gives 50% inhibition. In general, Ki refers to a measure of affinity in units of concentration, obtained from inhibition or displacement.

Where a name gives a salt, the structure may show the parent alone. Read-outs that look alike come from different tables or passages of the source. Where only a bound is given, the exact number is not on record here.

S. aureus TopoIV enzyme, sequence (P0C1S7 whole entry): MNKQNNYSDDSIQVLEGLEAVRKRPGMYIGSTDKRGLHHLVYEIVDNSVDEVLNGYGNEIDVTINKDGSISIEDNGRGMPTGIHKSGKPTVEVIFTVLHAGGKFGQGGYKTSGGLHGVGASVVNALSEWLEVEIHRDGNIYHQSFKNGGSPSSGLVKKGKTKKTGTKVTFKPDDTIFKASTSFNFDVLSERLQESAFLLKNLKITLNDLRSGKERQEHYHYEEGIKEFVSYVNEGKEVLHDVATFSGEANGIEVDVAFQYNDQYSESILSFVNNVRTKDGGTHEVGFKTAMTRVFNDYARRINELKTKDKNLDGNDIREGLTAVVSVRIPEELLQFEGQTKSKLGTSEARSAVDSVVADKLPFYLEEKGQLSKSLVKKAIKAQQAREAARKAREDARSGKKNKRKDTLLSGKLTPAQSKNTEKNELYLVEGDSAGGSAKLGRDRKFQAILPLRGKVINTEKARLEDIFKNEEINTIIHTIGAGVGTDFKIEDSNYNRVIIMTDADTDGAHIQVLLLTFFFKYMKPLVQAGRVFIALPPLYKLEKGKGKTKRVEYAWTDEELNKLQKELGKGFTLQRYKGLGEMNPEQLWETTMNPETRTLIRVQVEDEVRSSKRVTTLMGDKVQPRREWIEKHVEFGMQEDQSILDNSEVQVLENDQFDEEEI
S. aureus TopoIV enzyme, sequence (P0C1U9 whole entry partner): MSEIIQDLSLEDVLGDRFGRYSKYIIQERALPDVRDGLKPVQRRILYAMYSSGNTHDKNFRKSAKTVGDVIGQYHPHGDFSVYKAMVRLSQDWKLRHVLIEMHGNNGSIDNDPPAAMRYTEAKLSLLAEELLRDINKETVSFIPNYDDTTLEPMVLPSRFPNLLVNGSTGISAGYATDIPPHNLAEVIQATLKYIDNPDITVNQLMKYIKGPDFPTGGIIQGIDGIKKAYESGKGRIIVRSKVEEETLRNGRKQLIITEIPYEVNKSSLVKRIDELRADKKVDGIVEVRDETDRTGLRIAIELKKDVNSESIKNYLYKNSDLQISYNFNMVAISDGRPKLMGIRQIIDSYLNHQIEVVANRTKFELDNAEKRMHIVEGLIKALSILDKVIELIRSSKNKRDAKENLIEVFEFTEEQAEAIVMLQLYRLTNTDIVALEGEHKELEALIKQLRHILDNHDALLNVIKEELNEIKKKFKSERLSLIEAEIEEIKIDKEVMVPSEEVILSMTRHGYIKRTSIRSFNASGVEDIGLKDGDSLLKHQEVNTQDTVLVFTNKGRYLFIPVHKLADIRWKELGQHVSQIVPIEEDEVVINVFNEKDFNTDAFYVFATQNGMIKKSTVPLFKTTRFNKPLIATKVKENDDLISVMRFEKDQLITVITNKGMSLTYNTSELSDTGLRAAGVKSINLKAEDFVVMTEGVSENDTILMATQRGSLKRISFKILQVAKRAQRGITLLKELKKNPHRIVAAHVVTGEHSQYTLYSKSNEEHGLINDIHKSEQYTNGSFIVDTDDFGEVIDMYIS
S. aureus DNA gyrase, sequence (P20831 whole entry): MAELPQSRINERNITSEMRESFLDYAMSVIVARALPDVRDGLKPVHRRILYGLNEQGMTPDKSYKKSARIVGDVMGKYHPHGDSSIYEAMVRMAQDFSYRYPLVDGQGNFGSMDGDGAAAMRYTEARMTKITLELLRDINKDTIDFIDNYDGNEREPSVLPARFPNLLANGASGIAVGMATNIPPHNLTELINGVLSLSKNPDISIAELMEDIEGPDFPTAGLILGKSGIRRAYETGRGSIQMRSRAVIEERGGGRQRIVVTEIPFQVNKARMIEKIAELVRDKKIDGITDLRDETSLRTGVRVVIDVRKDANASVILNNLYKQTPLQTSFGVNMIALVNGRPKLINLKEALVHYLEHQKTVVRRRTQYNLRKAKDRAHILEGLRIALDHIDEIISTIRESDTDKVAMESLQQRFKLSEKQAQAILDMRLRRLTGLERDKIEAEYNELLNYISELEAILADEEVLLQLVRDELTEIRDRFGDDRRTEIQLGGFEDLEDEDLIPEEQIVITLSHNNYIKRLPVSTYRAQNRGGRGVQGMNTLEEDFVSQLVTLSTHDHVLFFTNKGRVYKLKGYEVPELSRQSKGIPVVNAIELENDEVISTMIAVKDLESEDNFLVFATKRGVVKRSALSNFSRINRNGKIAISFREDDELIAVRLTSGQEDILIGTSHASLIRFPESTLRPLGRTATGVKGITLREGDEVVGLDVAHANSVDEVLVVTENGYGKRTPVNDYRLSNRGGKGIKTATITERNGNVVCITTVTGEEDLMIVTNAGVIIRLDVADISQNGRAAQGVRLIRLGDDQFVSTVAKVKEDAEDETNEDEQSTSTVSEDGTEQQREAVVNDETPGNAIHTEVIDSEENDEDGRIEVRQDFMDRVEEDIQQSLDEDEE
S. aureus DNA gyrase, sequence (P0A0K8 whole entry): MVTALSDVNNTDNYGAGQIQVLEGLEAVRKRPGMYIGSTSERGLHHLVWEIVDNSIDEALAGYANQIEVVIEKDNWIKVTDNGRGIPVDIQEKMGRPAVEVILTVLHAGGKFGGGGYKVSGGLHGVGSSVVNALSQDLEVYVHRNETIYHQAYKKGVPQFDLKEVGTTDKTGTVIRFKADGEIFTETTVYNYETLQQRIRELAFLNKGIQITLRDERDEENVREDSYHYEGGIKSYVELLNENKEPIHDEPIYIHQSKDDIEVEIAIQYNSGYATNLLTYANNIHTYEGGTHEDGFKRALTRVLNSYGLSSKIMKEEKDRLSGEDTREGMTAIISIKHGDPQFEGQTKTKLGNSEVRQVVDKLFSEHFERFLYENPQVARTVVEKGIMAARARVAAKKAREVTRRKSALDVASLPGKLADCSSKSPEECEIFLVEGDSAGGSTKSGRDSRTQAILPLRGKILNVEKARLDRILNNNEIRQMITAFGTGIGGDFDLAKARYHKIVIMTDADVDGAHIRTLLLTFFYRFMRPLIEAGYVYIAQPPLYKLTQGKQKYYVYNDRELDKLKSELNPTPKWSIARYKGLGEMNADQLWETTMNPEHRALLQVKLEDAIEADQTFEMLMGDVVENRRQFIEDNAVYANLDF

On to `CCNC(=O)Nc1nc2cc(-c3cnc(C(C)(C)O)nc3)cc([C@H]3CCCO3)c2[nH]1` [Compound 13, methanesulfonic acid salt of 1-ethyl-3-[5-[2-(1-hydroxy-1-methyl-ethyl)pyrimidin-5-yl]-7-[(2R)-tetrahydrofuran-2-yl]-1H-benzimidazol-2-yl]urea], for which, in [1], the MIC90 amounted to 0.25 µg/mL and the “MIC Range” value lay within 0.06 to 0.5 µg/mL. This compound also gave an MIC in the series on M. tuberculosis (ATCC 25618 / H37Rv, M. tuberculosis H37Rv ATCC 25618) of 0.37 µg/mL. In the series on M. tuberculosis (ATCC 35801 / ERDMAN, M. tuberculosis Erdman ATCC 35801), this compound gave an MIC of 0.25 µg/mL.

In the case of `CCNC(=O)Nc1nc2cc(-c3cnc(C(C)(C)O)nc3)c(F)c([C@H]3CCCO3)c2[nH]1` [Compound 23, 1-ethyl-3-[6-fluoro-5-[2-(1-hydroxy-1-methyl-ethyl)pyrimidin-5-yl]-7-[(2R)-tetrahydrofuran-2-yl]-1H-benzimidazol-2-yl]urea], the AUC worked out at 24800 ng·h/mL in [2] (30 mg/kg, Compound W dosed PO 30 mg/kg in 0.5% MC, read-out: AUCextrap); 76900 ng·h/mL in [2] (setting [6]); 155000 ng·h/mL in [2] (300 mg/kg, Compound W dosed PO 300 mg/kg in 0.5% MC, read-out: AUCextrap). Also, the “clinical signs, body weights, electrocardiography, clinical pathology, organ weights” value in [3] (doses up to 200 mg/kg/day) is on record as “no clinical signs, or changes in body weights, electrocardiography parameters, clinical pathology parameters, or organ weights”. In addition, the “macroscopic or microscopic findings” value in series [3] (doses up to 200 mg/kg/day) was “no macroscopic or microscopic findings”. Moreover, in [3] (male Cynomolgus monkeys, oral gavage once per day for 7 days), the “no observed effect level (NOEL)” value is listed as 200 mg/kg/day. Besides, the “exposures for different dosage levels” value in [3] (male Cynomolgus monkeys, toxicokinetics) is listed as “dose related”.

Take `CCNC(=O)Nc1nc2cc(-c3cnc(C(C)(C)O)nc3)c(F)c([C@H]3CCCO3)c2[nH]1` [Compound 23A, methanesulfonic acid salt of 1-ethyl-3-[6-fluoro-5-[2-(1-hydroxy-1-methyl-ethyl)pyrimidin-5-yl]-7-[(2R)-tetrahydrofuran-2-yl]-1H-benzimidazol-2-yl]urea]: the MIC is 0.03 µg/mL against M. kansasii (M. kansasii 303); below 0.015 µg/mL against M. kansasii (M. kansasii 379); 2 µg/mL against M. abscessus (M. abscessus BB1); 1 µg/mL in the series with M. abscessus (M. abscessus BB2); 0.5 µg/mL against M. abscessus (M. abscessus BB3); 2 µg/mL against M. abscessus (M. abscessus BB4). The MIC in the series on M. abscessus (M. abscessus BB5) came to 0.5 µg/mL; in the series on M. abscessus (M. abscessus BB6), 0.5 µg/mL; in the series on M. abscessus (M. abscessus BB8) it was 0.5 µg/mL; in the series with M. abscessus (M. abscessus LT 949), 1 µg/mL; with M. abscessus (M. abscessus MC 5812) it was 1 µg/mL; in the series on M. abscessus (M. abscessus MC 5901), 1 µg/mL. The MIC against M. abscessus (M. abscessus MC 5908 (second listing, r109)) was 1 µg/mL; in the series on M. abscessus (M. abscessus MC 5922), 0.25 µg/mL; against M. abscessus (M. abscessus MC 5931), 0.5 µg/mL; with M. abscessus (M. abscessus MC 5960) it was 0.5 µg/mL; with M. abscessus (M. abscessus MC 6005), 1 µg/mL; against M. abscessus (M. abscessus MC 6025), 0.75 µg/mL. Moreover, the MIC in the series on M. abscessus (M. abscessus MC 6111) is 0.5 µg/mL; against M. abscessus (M. abscessus MC 6136), 0.5 µg/mL; in the series on M. abscessus (M. abscessus MC 6142) it was 0.5 µg/mL; against M. abscessus (M. abscessus MC 6153) it was 1 µg/mL; in [4] (ATCCBAA84, Stenotrophomonas maltophilia ATCC BAA-84), above 8 µg/mL; in series [4] (Stenotrophomonas maltophilia ATCC13637), above 8 µg/mL.

Turning to `CCNC(=O)Nc1nc2cc(-c3cnc(C(C)(C)OP(=O)([O-])[O-])nc3)c(F)c([C@H]3CCCO3)c2[nH]1.[Na+].[Na+]` [Compound W, disodium (R)-2-(5-(2-(3-ethylureido)-6-fluoro-7-(tetrahydrofuran-2-yl)-1H-benzo[d]imidazol-5-yl)pyrimidin-2-yl)propan-2-yl phosphate], the values for the IC50 against S. aureus TopoIV enzyme and on S. aureus DNA gyrase were 150 nM and 54 nM, respectively. Further, affinity on S. aureus TopoIV enzyme was put at a Ki of 30 nM. Further, in series [5], the “conversion of Compound W to Compound 23” value was “rapidly converts to Compound 23”. The “conversion in vivo into Compound 23” value in series [2] (in at least rats, dogs and monkeys (all pharmacokinetic studies)) was “converted in vivo into Compound 23”. For the same compound, the AUC came out at 45.3 ng·h/mL in series [2] (30 mg/kg, Compound W dosed PO 30 mg/kg in 0.5% MC, read-out: AUC); 432 ng·h/mL in series [2] (100 mg/kg, Compound W dosed PO 100 mg/kg in 0.5% MC, read-out: AUC); 437 ng·h/mL in series [2] (setting [6]); 3690 ng·h/mL in [2] (300 mg/kg, Compound W dosed PO 300 mg/kg in 0.5% MC, read-out: AUC).
